The source of these data is publication PMC5218480 (PLoS ONE, 2017).

For this experiment, the system named is MV-4-11 cells. As to the kind of experiment: Gene expression microarray analysis (Affymetrix PrimeView) and GSEA. The format is cell-based, human. Further details: RFU PODN (11730768_x_at) / Fold change /veh PODN (11730768_x_at) / RFU LINC00158 (11744669_a_at) / Fold change /veh LINC00158 (11744669_a_at) / RFU DUSP10 (11751237_a_at) / Fold change /veh DUSP10 (11751237_a_at) / RFU ID3 (11757404_x_at) / Fold change /veh ID3 (11757404_x_at) / RFU PLEKHG5 (11737974_s_at) / Fold change /veh PLEKHG5 (11737974_s_at) / RFU LRRC4B (11730491_at) / Fold change /veh LRRC4B (11730491_at) / RFU GIMAP4 (11747438_a_at) / Fold change /veh GIMAP4 (11747438_a_at) / RFU KRT8 (11758183_x_at) / Fold change /veh KRT8 (11758183_x_at) / RFU CNN1 (11734310_a_at) / Fold change /veh CNN1 (11734310_a_at) / RFU VPS37D (11726825_at) / Fold change /veh VPS37D (11726825_at) / RFU C10orf10 (11716522_x_at) / Fold change /veh C10orf10 (11716522_x_at) / RFU KIR2DL2 /// KIR2DL4 /// KIR2DL5A /// KIR2DL5B /// KIR2DS1 /// KIR2DS2 /// KIR2DS3 /// KIR2DS4 /// KIR3DL3 /// KIR3DL3 /// KIR3DS1 (11738374_at) / Fold change /veh KIR2DL2 /// KIR2DL4 /// KIR2DL5A /// KIR2DL5B /// KIR2DS1 /// KIR2DS2 /// KIR2DS3 /// KIR2DS4 /// KIR3DL3 /// KIR3DL3 /// KIR3DS1 (11738374_at) / RFU C1QL1 (11718748_at) / Fold change /veh C1QL1 (11718748_at) / RFU TMPRSS4 (11747572_a_at) / Fold change /veh TMPRSS4 (11747572_a_at) / RFU HAMP (11756126_x_at) / Fold change /veh HAMP (11756126_x_at) / RFU RNFT2 (11725882_a_at) / Fold change /veh RNFT2 (11725882_a_at) / RFU NR4A2 (11747474_a_at) / Fold change /veh NR4A2 (11747474_a_at) / RFU ABCC12 (11746883_a_at) / Fold change /veh ABCC12 (11746883_a_at) / RFU TMEM136 (11760407_x_at) / Fold change /veh TMEM136 (11760407_x_at) / RFU CLDN22 /// WWC2 (11732394_at) / Fold change /veh CLDN22 /// WWC2 (11732394_at) / RFU HLA-DPB1 (11760878_x_at) / Fold change /veh HLA-DPB1 (11760878_x_at) / RFU SPINT1 (11716480_a_at) / Fold change /veh SPINT1 (11716480_a_at) / RFU GAP43 (11754022_s_at) / Fold change /veh GAP43 (11754022_s_at) / RFU A4GNT (11735810_at) / Fold change /veh A4GNT (11735810_at) / RFU PRB3 (11715151_x_at) / Fold change /veh PRB3 (11715151_x_at) / RFU TUBB4B (11761932_at) / Fold change /veh TUBB4B (11761932_at) / RFU CAPN14 (11732068_a_at) / Fold change /veh CAPN14 (11732068_a_at) / RFU TMCC2 (11721928_a_at) / Fold change /veh TMCC2 (11721928_a_at) / RFU IRGQ (11745062_a_at) / Fold change /veh IRGQ (11745062_a_at) / RFU FAM174B (11720279_a_at) / Fold change /veh FAM174B (11720279_a_at) / RFU TMPRSS4 (11748680_a_at) / Fold change /veh TMPRSS4 (11748680_a_at) / RFU FAM212B (11763350_a_at) / Fold change /veh FAM212B (11763350_a_at) / RFU PLEKHG5 (11743358_a_at) / Fold change /veh PLEKHG5 (11743358_a_at) / RFU ZSCAN30 (11745921_a_at) / Fold change /veh ZSCAN30 (11745921_a_at) / RFU CMKLR1 (11741424_a_at) / Fold change /veh CMKLR1 (11741424_a_at) / RFU LOC101060620 /// MAPK8IP1 (11723275_at) / Fold change /veh LOC101060620 /// MAPK8IP1 (11723275_at) / RFU SPTSSB (11747773_x_at) / Fold change /veh SPTSSB (11747773_x_at) / RFU PRSS12 (11739890_at) / Fold change /veh PRSS12 (11739890_at) / RFU BIN1 (11741810_x_at) / Fold change /veh BIN1 (11741810_x_at) / RFU WNT11 (11732464_a_at) / Fold change /veh WNT11 (11732464_a_at) / RFU C10orf10 (11716521_a_at) / Fold change /veh C10orf10 (11716521_a_at) / RFU C5orf56 (11738089_at) / Fold change /veh C5orf56 (11738089_at) / RFU CYB561 (11721691_x_at) / Fold change /veh CYB561 (11721691_x_at) / RFU ANKRD19P (11752326_a_at) / Fold change /veh ANKRD19P (11752326_a_at) / RFU OR2T12 /// OR2T33 /// OR2T8 (11738714_s_at) / Fold change /veh OR2T12 /// OR2T33 /// OR2T8 (11738714_s_at) / RFU VCAN (11748164_a_at) / Fold change /veh VCAN (11748164_a_at) / RFU JSRP1 (11732532_at) / Fold change /veh JSRP1 (11732532_at) / RFU KRTAP10-11 (11738290_x_at) / Fold change /veh KRTAP10-11 (11738290_x_at) / RFU MYO3A (11730013_a_at) / Fold change /veh MYO3A (11730013_a_at) / RFU EBF3 (11725865_a_at) / Fold change /veh EBF3 (11725865_a_at) / RFU CAMK2N1 (11719241_x_at) / Fold change /veh CAMK2N1 (11719241_x_at) / RFU C5orf56 (11738088_a_at) / Fold change /veh C5orf56 (11738088_a_at) / RFU OLFML3 (11715873_a_at) / Fold change /veh OLFML3 (11715873_a_at) / RFU LOC100653217 /// NTM (11731650_a_at) / Fold change /veh LOC100653217 /// NTM (11731650_a_at) / RFU MAPK11 (11762145_a_at) / Fold change /veh MAPK11 (11762145_a_at) / RFU FIZ1 (11724087_x_at) / Fold change /veh FIZ1 (11724087_x_at) / RFU OASL (11726364_x_at) / Fold change /veh OASL (11726364_x_at) / RFU SOX15 (11748057_x_at) / Fold change /veh SOX15 (11748057_x_at) / RFU CD79A (11719716_a_at) / Fold change /veh CD79A (11719716_a_at) / RFU HIST1H1D (11736915_at) / Fold change /veh HIST1H1D (11736915_at) / RFU CASKIN2 (11723855_a_at) / Fold change /veh CASKIN2 (11723855_a_at) / RFU LOC730098 (11760151_x_at) / Fold change /veh LOC730098 (11760151_x_at) / RFU OR4N2 (11742367_at) / Fold change /veh OR4N2 (11742367_at) / RFU PRRT2 (11749266_a_at) / Fold change /veh PRRT2 (11749266_a_at) / RFU SNX32 (11753110_a_at) / Fold change /veh SNX32 (11753110_a_at) / RFU CDHR5 (11726645_a_at) / Fold change /veh CDHR5 (11726645_a_at) / RFU RCAN1 (11760418_a_at) / Fold change /veh RCAN1 (11760418_a_at) / RFU FAM167A (11723789_a_at) / Fold change /veh FAM167A (11723789_a_at) / RFU FAM26E (11764081_at) / Fold change /veh FAM26E (11764081_at) / RFU ISYNA1 (11749810_s_at) / Fold change /veh ISYNA1 (11749810_s_at) / RFU ACY1 (11761880_at) / Fold change /veh ACY1 (11761880_at) / RFU 11764098_at / Fold change /veh 11764098_at / RFU SAMD14 (11745864_x_at) / Fold change /veh SAMD14 (11745864_x_at) / RFU NPB (11741838_a_at) / Fold change /veh NPB (11741838_a_at) / RFU TMPRSS6 (11731388_a_at) / Fold change /veh TMPRSS6 (11731388_a_at) / RFU KRTAP10-2 (11738614_at) / Fold change /veh KRTAP10-2 (11738614_at) / RFU ARHGAP8 /// PRR5-ARHGAP8 (11727945_x_at) / Fold change /veh ARHGAP8 /// PRR5-ARHGAP8 (11727945_x_at) / RFU KRTAP5-7 /// NADSYN1 (11734609_at) / Fold change /veh KRTAP5-7 /// NADSYN1 (11734609_at) / RFU RASL12 (11751679_a_at) / Fold change /veh RASL12 (11751679_a_at) / RFU CDKN2B (11736163_a_at) / Fold change /veh CDKN2B (11736163_a_at) / RFU PRF1 (11729649_at) / Fold change /veh PRF1 (11729649_at) / RFU, ZNF638 /// ZNF638-IT1 / Fold change vs veh, ZNF638 /// ZNF638-IT1 / RFU, PANK3 / Fold change vs veh, PANK3 / RFU, SH3YL1 / Fold change vs veh, SH3YL1 / RFU, ZEB2 / Fold change vs veh, ZEB2 / RFU, NRIP1 / Fold change vs veh, NRIP1 / RFU, PTTG1IP / Fold change vs veh, PTTG1IP / RFU, CAPN2 / Fold change vs veh, CAPN2 / RFU, MED14 / Fold change vs veh, MED14 / RFU, SNORA58 / Fold change vs veh, SNORA58 / RFU, C1orf63 / Fold change vs veh, C1orf63 / RFU, LRRFIP1 / Fold change vs veh, LRRFIP1 / RFU, NDUFAF7 / Fold change vs veh, NDUFAF7 / RFU, SLC12A2 / Fold change vs veh, SLC12A2 / RFU, IBTK / Fold change vs veh, IBTK / RFU, ESF1 / Fold change vs veh, ESF1 / Fold change vs veh, TMEM50B / RFU, TAOK1 / Fold change vs veh, TAOK1 / RFU, ACBD3 / Fold change vs veh, ACBD3 / RFU, TMA16 / Fold change vs veh, TMA16 / RFU, RWDD3 / Fold change vs veh, RWDD3 / RFU, BCAT1 / Fold change vs veh, BCAT1 / RFU, EDEM3 / Fold change vs veh, EDEM3 / RFU, TMEM33 / Fold change vs veh, TMEM33 / RFU, WDR75 / Fold change vs veh, WDR75 / RFU, AHCTF1 / Fold change vs veh, AHCTF1 / RFU, TFRC / Fold change vs veh, TFRC / RFU, ZDHHC17 / Fold change vs veh, ZDHHC17 / RFU, NOM1 / Fold change vs veh, NOM1 / RFU, ARL8B / Fold change vs veh, ARL8B / RFU, ZBTB11 / Fold change vs veh, ZBTB11 / RFU, TAMM41 / Fold change vs veh, TAMM41 / RFU, KIAA1704 /// LOC100996395 / Fold change vs veh, KIAA1704 /// LOC100996395 / RFU, ING1 / Fold change vs veh, ING1 / RFU, TRMT61B / Fold change vs veh, TRMT61B / RFU, FUBP3 / Fold change vs veh, FUBP3 / RFU, TP53 / Fold change vs veh, TP53 / RFU, TNKS2 / Fold change vs veh, TNKS2 / RFU, ZFP14 / Fold change vs veh, ZFP14 / RFU, ACTR2 / Fold change vs veh, ACTR2 / RFU, PPP3R1 / Fold change vs veh, PPP3R1 / RFU, PIK3R1 / Fold change vs veh, PIK3R1 / RFU, HNRNPA1 / Fold change vs veh, HNRNPA1 / RFU, RNF170 / Fold change vs veh, RNF170 / RFU, ZNF28 / Fold change vs veh, ZNF28 / RFU, RNGTT / Fold change vs veh, RNGTT / RFU, OGT / Fold change vs veh, OGT / RFU, BRD1 / Fold change vs veh, BRD1 / RFU, MARS / Fold change vs veh, MARS / RFU, ZNF655 / Fold change vs veh, ZNF655 / RFU, FAHD1 / Fold change vs veh, FAHD1 / RFU, BDP1 / Fold change vs veh, BDP1 / RFU, LRRCC1 / Fold change vs veh, LRRCC1 / RFU, ARID1A / Fold change vs veh, ARID1A / RFU, ZNF146 / Fold change vs veh, ZNF146 / RFU, ZNF330 / Fold change vs veh, ZNF330 / RFU, GPN3 / Fold change vs veh, GPN3 / RFU, C9orf123 / Fold change vs veh, C9orf123 / RFU, N4BP2L2 / Fold change vs veh, N4BP2L2 / RFU, ARFIP1 / Fold change vs veh, ARFIP1 / RFU, FAM179B / Fold change vs veh, FAM179B / RFU, BCL10 / Fold change vs veh, BCL10 / RFU, UHRF1BP1L / Fold change vs veh, UHRF1BP1L / RFU, BET1 / Fold change vs veh, BET1 / RFU, CNOT2 / Fold change vs veh, CNOT2 / RFU, ZNF268 / Fold change vs veh, ZNF268 / Fold change vs veh, ZNF507 / RFU, DGCR2 / Fold change vs veh, DGCR2 / RFU, WDSUB1 / Fold change vs veh, WDSUB1 / Fold change vs veh, HSP90B1 /// MIR3652 / RFU, ADSS / Fold change vs veh, ADSS / RFU, GK / Fold change vs veh, GK / RFU, ZNF148 / Fold change vs veh, ZNF148 / RFU, TAF9 / Fold change vs veh, TAF9 / RFU, SLC1A5 / Fold change vs veh, SLC1A5 / RFU, SLMO2 / Fold change vs veh, SLMO2 / RFU, ABCC4 / Fold change vs veh, ABCC4 / RFU, LOC101060439 /// RAP1B / Fold change vs veh, LOC101060439 /// RAP1B / RFU, RFX7 / Fold change vs veh, RFX7 / RFU, GTPBP10 / Fold change vs veh, GTPBP10 / RFU, CNEP1R1 / Fold change vs veh, CNEP1R1 / RFU, BIVM-ERCC5 /// ERCC5 / Fold change vs veh, BIVM-ERCC5 /// ERCC5 / RFU, ILF3 / Fold change vs veh, ILF3 / RFU 11762660_at / Fold change /veh 11762660_at / RFU VCAN (11757783_s_at) / Fold change /veh VCAN (11757783_s_at) / RFU DDX43 (11728927_at) / Fold change /veh DDX43 (11728927_at) / RFU KRT8 (11758188_x_at) / Fold change /veh KRT8 (11758188_x_at) / RFU NKD1 (11759106_at) / Fold change /veh NKD1 (11759106_at) / RFU SRD5A1 (11742802_a_at) / Fold change /veh SRD5A1 (11742802_a_at) / RFU TPSAB1 /// TPSB2 (11721975_s_at) / Fold change /veh TPSAB1 /// TPSB2 (11721975_s_at) / RFU GSTM3 (11746129_a_at) / Fold change /veh GSTM3 (11746129_a_at) / RFU IL23R (11737362_x_at) / Fold change /veh IL23R (11737362_x_at) / RFU TMEM51 (11727254_a_at) / Fold change /veh TMEM51 (11727254_a_at) / RFU PIWIL2 (11732686_x_at) / Fold change /veh PIWIL2 (11732686_x_at) / RFU ORM1 (11744905_x_at) / Fold change /veh ORM1 (11744905_x_at) / RFU CCDC152 (11743942_at) / Fold change /veh CCDC152 (11743942_at) / RFU ECM1 (11717891_a_at) / Fold change /veh ECM1 (11717891_a_at) / RFU IL23R (11748794_a_at) / Fold change /veh IL23R (11748794_a_at) / RFU TNFAIP8L3 (11732012_x_at) / Fold change /veh TNFAIP8L3 (11732012_x_at) / RFU MBOAT4 (11741988_at) / Fold change /veh MBOAT4 (11741988_at) / RFU 11764193_at / Fold change /veh 11764193_at / RFU TMEM53 (11763286_at) / Fold change /veh TMEM53 (11763286_at) / RFU MAGEB2 (11727129_at) / Fold change /veh MAGEB2 (11727129_at) / RFU TMEM200A (11744735_a_at) / Fold change /veh TMEM200A (11744735_a_at) / RFU CCDC152 (11751479_a_at) / Fold change /veh CCDC152 (11751479_a_at) / RFU FAM211A (11726209_a_at) / Fold change /veh FAM211A (11726209_a_at) / RFU RGS16 (11746705_a_at) / Fold change /veh RGS16 (11746705_a_at) / RFU VCAN (11755009_s_at) / Fold change /veh VCAN (11755009_s_at) / RFU RHOB (11743442_s_at) / Fold change /veh RHOB (11743442_s_at) / RFU RGS16 (11720943_a_at) / Fold change /veh RGS16 (11720943_a_at) / RFU RGS16 (11720944_at) / Fold change /veh RGS16 (11720944_at) / RFU, VPS4B / Fold change vs veh, VPS4B / RFU, CREB1 / Fold change vs veh, CREB1 / RFU, DNAJC13 / Fold change vs veh, DNAJC13 / RFU, GNAQ / Fold change vs veh, GNAQ / RFU, CDK5R1 / Fold change vs veh, CDK5R1 / RFU, ZRANB3 / Fold change vs veh, ZRANB3 / RFU, CUL4A / Fold change vs veh, CUL4A / RFU, CCNY / Fold change vs veh, CCNY / RFU, UFL1 / Fold change vs veh, UFL1 / RFU, COG3 / Fold change vs veh, COG3 / RFU, DIAPH2 / Fold change vs veh, DIAPH2 / RFU, SKA2 / Fold change vs veh, SKA2 / RFU, AFF3 / Fold change vs veh, AFF3 / RFU, LMF1 / Fold change vs veh, LMF1 / RFU, IPO11 / Fold change vs veh, IPO11 / RFU, DFFB / Fold change vs veh, DFFB / RFU, FOXP1 / Fold change vs veh, FOXP1 / RFU, CARD8 / Fold change vs veh, CARD8 / RFU, STRN3 / Fold change vs veh, STRN3 / RFU, ADK / Fold change vs veh, ADK / RFU, RASSF2 / Fold change vs veh, RASSF2 / RFU, WIPF1 / Fold change vs veh, WIPF1 / RFU, LARP1B / Fold change vs veh, LARP1B / RFU, RASA1 / Fold change vs veh, RASA1 / RFU, RB1 / Fold change vs veh, RB1 / RFU, PPFIA1 / Fold change vs veh, PPFIA1 / RFU, MAT2A / Fold change vs veh, MAT2A / RFU, CCT5 / Fold change vs veh, CCT5 / RFU, WDR92 / Fold change vs veh, WDR92 / RFU, CUX1 / Fold change vs veh, CUX1 / RFU, TTC7A / Fold change vs veh, TTC7A / RFU, TMEM135 / Fold change vs veh, TMEM135 / RFU, DEPTOR / Fold change vs veh, DEPTOR / RFU, CPM / Fold change vs veh, CPM / RFU, DNAJB6 / Fold change vs veh, DNAJB6 / RFU, CACNA2D3 / Fold change vs veh, CACNA2D3 / RFU, DTX4 / Fold change vs veh, DTX4 / RFU, TFCP2 / Fold change vs veh, TFCP2 / RFU, GMCL1 /// GMCL1P1 / Fold change vs veh, GMCL1 /// GMCL1P1 / RFU, AEBP2 / Fold change vs veh, AEBP2 / RFU, SNHG1 /// SNORD22 /// SNORD25 /// SNORD26 /// SNORD27 /// SNORD28 /// SNORD29 /// SNORD31 / Fold change vs veh, SNHG1 /// SNORD22 /// SNORD25 /// SNORD26 /// SNORD27 /// SNORD28 /// SNORD29 /// SNORD31 / Fold change (Aza/veh), C12orf56 (ProbeSet 11735607_a_at) / Fold change (ACY-1035/veh), C12orf56 (ProbeSet 11735607_a_at) / Fold change (Aza/veh), FGFR1OP (ProbeSet 11751329_s_at) / Fold change (ACY-1035/veh), FGFR1OP (ProbeSet 11751329_s_at) / Fold change (Aza/veh), VPS36 (ProbeSet 11739960_a_at) / Fold change (ACY-1035/veh), VPS36 (ProbeSet 11739960_a_at) / RFU SYPL1 (11715823_x_at) / Fold change /veh SYPL1 (11715823_x_at) / RFU IGFBP7 (11715501_s_at) / Fold change /veh IGFBP7 (11715501_s_at) / RFU REEP3 (11722064_at) / Fold change /veh REEP3 (11722064_at) / RFU IGLL1 (11728026_x_at) / Fold change /veh IGLL1 (11728026_x_at): dose or concentration left out as unconfirmed. Conditions: MV-4-11 cells, 48 hours.

In the case of `Nc1ccc(-c2cccs2)cc1NC(=O)c1ccc2c(c1)cc(C1CC1)n2CCN1CCOCC1` [ACY-1035], the “Fold change /veh SPINT1 (11716480_a_at)” value worked out at 1.05.
